Results from patent US20240252668A1, “ANTIBODY DRUG CONJUGATES AND METHODS FOR MAKING THEREOF” (Novartis AG, priority 2021, published 2024).
Read-outs that look alike come from different tables or passages of the source. Starred links: 1 amine or outer side, 2 acyl side, 3 side chain; linkers in the order of their positions; H or OH if unused. Positions of bridges follow the written chain, without caps; N, C: chain ends. Non-standard residues stand in square brackets, D forms with d. Residues, ends and D or L forms follow the SMILES beside them. *: point of attachment. Leu(3R-OH,Nα-propionyl) = CCC(=O)N[C@H](C(=O)*)[C@H](O)C(C)C; X1 = CC(C)[C@@H](O[*:3])[C@H](N[*:1])C(=O)[*:2]; NMeT = CN[C@H](C(=O)O)[C@@H](C)O; dPhLac = O=C(O)[C@H](O)Cc1ccccc1; NMeA = CN[C@@H](C)C(=O)O; NMeDha = C=C(NC)C(=O)O

What was measured:
[1] = EPSA determination by supercritical fluid chromatography; type: physicochemical; conditions: supercritical fluid chromatography, Chirex 3014 column; modified EPSA method, SFC; read-out: EPSA
Summary of the method: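 SFC on a Chirex 3014 column ([…], 3×100 mm, 100 Å). Gradient runs linearly from 5% to 60% methanol containing 20 mM ammonium formate, in scCO2, over 4.5 min.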

[2] = Plasma incubation of compound (A1), mouse (CD-1) plasma; type: in vitro ADME
Procedure: Plasma incubations and sample preparation: Compound (A1) was spiked at 5.00 μg/mL in PBS and pooled mixed gender mouse (CD-1), cynomolgus monkey and human plasma. Samples were incubated on a Thermomixer (Eppendorf) at 37° C. while shaking at 650 rpm. Aliquots of 50 μL (n=3) were drawn from each incubation tube following 0, 0.5, 1, 2, 4, 8 and 24 h of incubation. 50 μL of sample was quenched with 200 μL of acetonitrile, containing both generic internal standards, glybenclamide and warfarin, at 62.5 ng/mL. Samples were briefly vortexed and centrifuged for 20 min at 4000 rpm and 4° C. 200 μL of the supernatant was transferred into a clean 800 μL 96-well sample collection plate.
Quantification by LC-MS/MS: LC-MS/MS analysis was conducted with a Shimadzu Nexera UPLC coupled to AB Sciex QTRAP 6500 using the SRM acquisition mode (3 μL injected). Samples were analyzed using a ACE 3° C.18-PFP (3 μM, 2.1×50 mm column) at a column temperature of 65° C. […] Quantification of compound (A1) and 5 was performed by MS-MRM (electrospray in positive mode, ion spray voltage: 5000 V, source temperature: 500° C., curtain gas: 25 psig, nebulizer gas: 60 psig, turbo ion spray gas: 40 psig, mass range: low, resolution Q1/Q3: unit, collision gas: medium, dwell time: 12 msec). […] Peak integration and quantification was conducted with the AB Sciex Analyst software (v.1.7) using the Analyst Classic algorithm.

[3] = system: 92.1 uveal melanoma cell line (heterozygous GNAQ Q209L); experiment: Cell proliferation assay (resazurin cell viability), 92.1 cell line; type: cell-based
Summary of the method: (§1)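 Cells seeded the night before, then treated 96 h at 37 °C in RPMI/10% FCS (A375 in DMEM/10% FCS); compounds 260 nM to 0.036 nM in ⅓ dilution steps, one compound 10000 nM to 1.52 nM. Viability read by resazurin addition after 96 h.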

[4] = system: A375 skin melanoma cell line (homozygous BRAF V600E); experiment: Cell proliferation assay (resazurin cell viability), A375 cell line; type: cell-based; conditions: Homo sapiens, A-375
Summary of the method: as §1

What does the source list for `C=C1C(=O)N[C@@H](C)C(=O)N(C)[C@@H](C)C(=O)N[C@@H]([C@H](OC(=O)[C@@H](NC(=O)CC)[C@H](O)C(C)C)C(C)C)C(=O)N(C)[C@@H]([C@@H](C)OC)C(=O)O[C@H](C(C)C)[C@H](NC(C)=O)C(=O)O[C@H](Cc2ccccc2)C(=O)N1C` [Compound (A1), FR900359] (Ac-[X1][dPhLac][NMeDha]A[NMeA][X1](Leu(3R-OH,Nα-propionyl))[NMeT](Me); ester 1-C)?
EPSA [1]: 94 A^2; plasma stability / metabolite formation compared with human plasma [2]: Very similar results; GI50 ([3]; 92.1 (GNAQ Q209L), 96 hours of treatment, read-out: GI50 by cell line, 92.1): 600 pM; GI50 ([3]; 92.1 cell line, average of Rep. 1 and 2, read-out: GI50 92.1 Average): 600 pM; GI50 ([3]; 92.1 cell line, replicate 1, read-out: GI50 92.1 Rep. 1): 460 pM; GI50 ([3]; 92.1 cell line, replicate 2, read-out: GI50 92.1 Rep. 2): 690 pM; GI50 ([4]; A375 (GNAQ/11 wild type), 96 hours of treatment, read-out: GI50 by cell line, A375): > 260000 pM; GI50 ([4]; A375 cell line, average of Rep. 1 and 2, read-out: GI50 A375 Average): > 260000 pM; GI50 ([4]; A375 cell line, replicate 1, read-out: GI50 A375 Rep. 1): > 260000 pM; GI50 ([4]; A375 cell line, replicate 2, read-out: GI50 A375 Rep. 2): > 260000 pM
